# Laboratory results published in ChEMBL document CHEMBL1201862, “PubChem BioAssay data set” (2004).
#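 Step 1: Grow cells in 96-well plates. Step 2: Expose to compound for 48 hours at 5 concentrations. Step 3: Interpolate endpoints linearly; if unreached, use highest concentration. GI50 is the concentration that inhibits growth by half.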 The source made the active and inactive calls. Cut-off read from the data, not from the text of the source: active = GI50 up to about 1.1 µM and inactive = higher.
# Experiments:
# Assay in all cases: inhibition of tumour cell growth, NCI panel, 48 h
# CAKI-1 = test system: CAKI-1
# SK-MEL-28 = test system: SK-MEL-28
# UACC-62 = test system: UACC-62
# SW-620 = test system: SW-620
# SNB-19 = test system: SNB-19
# SF-268 = test system: SF-268
# Hs-578T = test system: Hs-578T
# OVCAR-3 = test system: OVCAR-3
# U-251 = test system: U-251
# IGROV-1 = test system: IGROV-1
# EKVX = test system: EKVX
# OVCAR-5 = test system: OVCAR-5
# DU-145 = test system: DU-145
# KM12 = test system: KM12
# M14 = test system: M14
# NCI-H522 = test system: NCI-H522
# HL-60 = test system: HL-60
# BT-549 = test system: BT-549
# NCI-H226 = test system: NCI-H226
# K562 = test system: K562
# HOP-92 = test system: HOP-92
# SK-MEL-5 = test system: SK-MEL-5
# SN12C = test system: SN12C
# MDA-MB-435 = test system: MDA-MB-435
# PC-3 = test system: PC-3
# MOLT-4 = test system: MOLT-4
# MCF7 = test system: MCF7
# NCI-H23 = test system: NCI-H23
# CCRF-CEM = test system: CCRF-CEM
# HCT-116 = test system: HCT-116
# HOP-62 = test system: HOP-62
# 786-0 = test system: 786-0
# Malme-3M = test system: Malme-3M
# HCT-15 = test system: HCT-15
# OVCAR-4 = test system: OVCAR-4
# T47D = test system: T47D
# HT-29 = test system: HT-29
# RXF 393 = test system: RXF 393
# NCI-H460 = test system: NCI-H460
# UO-31 = test system: UO-31
# SNB-75 = test system: SNB-75
# NCI/ADR-RES = test system: NCI/ADR-RES
# TK-10 = test system: TK-10
# ACHN = test system: ACHN
# A498 = test system: A498
# SF-539 = test system: SF-539
# A549 = test system: A549
# SK-OV-3 = test system: SK-OV-3
# SR = test system: SR
# MDA-N = test system: MDA-N
# RPMI-8226 = test system: RPMI-8226
# MDA-MB-231 = test system: MDA-MB-231
# HCC 2998 = test system: HCC 2998
# SK-MEL-2 = test system: SK-MEL-2
# COLO 205 = test system: COLO 205
# LOX IMVI = test system: LOX IMVI
# SF-295 = test system: SF-295
# UACC-257 = test system: UACC-257
# OVCAR-8 = test system: OVCAR-8
smiles,measurement,setting,value
CCOC(=O)/C=C(\C(=O)OCC)n1ccc(=O)n(Cc2cnnn2CCCCOC(C)=O)c1=O,GI50,CAKI-1,2.38 µM (inactive)
same,GI50,SK-MEL-28,6 µM (inactive)
same,GI50,UACC-62,6.14 µM (inactive)
same,GI50,SW-620,2.05 µM (inactive)
same,GI50,SNB-19,1.57 µM (inactive)
same,GI50,SF-268,15.6 µM (inactive)
same,GI50,Hs-578T,16.3 µM (inactive)
same,GI50,OVCAR-3,5.3 µM (inactive)
same,GI50,U-251,27.3 µM (inactive)
same,GI50,IGROV-1,14 µM (inactive)
same,GI50,EKVX,11 µM (inactive)
same,GI50,OVCAR-5,12.4 µM (inactive)
same,GI50,DU-145,18.6 µM (inactive)
same,GI50,KM12,15.9 µM (inactive)
same,GI50,M14,17.5 µM (inactive)
same,GI50,NCI-H522,1.53 µM (inactive)
same,GI50,HL-60,2.79 µM (inactive)
same,GI50,BT-549,16.4 µM (inactive)
same,GI50,NCI-H226,17.6 µM (inactive)
same,GI50,K562,2.37 µM (inactive)
same,GI50,HOP-92,2.57 µM (inactive)
same,GI50,SK-MEL-5,13.5 µM (inactive)
same,GI50,SN12C,10.4 µM (inactive)
same,GI50,MDA-MB-435,6.85 µM (inactive)
same,GI50,PC-3,9.4 µM (inactive)
same,GI50,MOLT-4,2.49 µM (inactive)
same,GI50,MCF7,4.79 µM (inactive)
same,GI50,NCI-H23,13.2 µM (inactive)
same,GI50,CCRF-CEM,1.99 µM (inactive)
same,GI50,HCT-116,6.21 µM (inactive)
same,GI50,HOP-62,19.7 µM (inactive)
same,GI50,786-0,3.46 µM (inactive)
same,GI50,Malme-3M,2.06 µM (inactive)
same,GI50,HCT-15,3.73 µM
same,GI50,OVCAR-4,12.3 µM (inactive)
same,GI50,T47D,4.07 µM (inactive)
same,GI50,HT-29,9.08 µM (inactive)
same,GI50,RXF 393,0.697 µM (active)
same,GI50,NCI-H460,8.53 µM (inactive)
same,GI50,UO-31,21.7 µM (inactive)
same,GI50,SNB-75,14 µM (inactive)
same,GI50,NCI/ADR-RES,17.6 µM (inactive)
same,GI50,TK-10,4.54 µM (inactive)
same,GI50,ACHN,1.83 µM (inactive)
same,GI50,A498,21.1 µM (inactive)
same,GI50,SF-539,2.03 µM (inactive)
same,GI50,A549,19.9 µM (inactive)
same,GI50,SK-OV-3,34 µM (inactive)
same,GI50,SR,2.19 µM (inactive)
same,GI50,MDA-N,22.5 µM (inactive)
same,GI50,RPMI-8226,6.68 µM (inactive)
same,GI50,MDA-MB-231,15.2 µM (inactive)
same,GI50,HCC 2998,18.4 µM (inactive)
same,GI50,SK-MEL-2,14.7 µM (inactive)
same,GI50,COLO 205,1.3 µM (inactive)
same,GI50,LOX IMVI,4.09 µM (inactive)
same,GI50,SF-295,27.4 µM (inactive)
same,GI50,UACC-257,11.3 µM (inactive)
same,GI50,OVCAR-8,5.08 µM (inactive)
C/C(=N\NC(=O)N/N=C(\C)c1ccccn1)c1ccccn1,GI50,CAKI-1,38.8 µM (inactive)
same,GI50,SK-MEL-28,1.92 µM (inactive)
same,GI50,UACC-62,40.9 µM (inactive)
same,GI50,SW-620,0.726 µM (active)
same,GI50,SNB-19,2.19 µM (inactive)
same,GI50,SF-268,4.18 µM (inactive)
same,GI50,Hs-578T,> 38.6 µM (inactive)
same,GI50,OVCAR-3,45.1 µM (inactive)
same,GI50,U-251,20.3 µM (inactive)
same,GI50,IGROV-1,6.59 µM (inactive)
same,GI50,EKVX,19.3 µM (inactive)
same,GI50,OVCAR-5,> 52.6 µM (inactive)
same,GI50,DU-145,43.5 µM (inactive)
same,GI50,KM12,0.139 µM (active)
same,GI50,M14,0.205 µM (active)
same,GI50,NCI-H522,67.1 µM (inactive)
same,GI50,HL-60,0.0767 µM (active)
same,GI50,BT-549,1.15 µM (inactive)
same,GI50,NCI-H226,31 µM (inactive)
same,GI50,K562,0.118 µM (active)
same,GI50,HOP-92,0.279 µM (active)
same,GI50,SK-MEL-5,0.296 µM (active)
same,GI50,SN12C,2.16 µM (inactive)
same,GI50,MDA-MB-435,0.0526 µM (active)
same,GI50,PC-3,37.2 µM (inactive)
same,GI50,MOLT-4,0.555 µM (active)
same,GI50,MCF7,7.16 µM (inactive)
same,GI50,NCI-H23,0.15 µM (active)
same,GI50,CCRF-CEM,9.18 µM (inactive)
same,GI50,HCT-116,0.336 µM (active)
same,GI50,HOP-62,0.512 µM (active)
same,GI50,786-0,2.66 µM (inactive)
same,GI50,Malme-3M,> 100 µM (inactive)
same,GI50,HCT-15,37.8 µM
same,GI50,OVCAR-4,42 µM (inactive)
same,GI50,T47D,35.2 µM (inactive)
same,GI50,HT-29,< 0.01 µM (active)
same,GI50,RXF 393,28.1 µM (inactive)
same,GI50,NCI-H460,0.953 µM (active)
same,GI50,UO-31,22.8 µM (inactive)
same,GI50,SNB-75,> 100 µM (inactive)
same,GI50,NCI/ADR-RES,8.83 µM (inactive)
same,GI50,TK-10,0.11 µM (active)
same,GI50,ACHN,18.2 µM (inactive)
same,GI50,A498,> 71.4 µM (inactive)
same,GI50,SF-539,0.188 µM (active)
same,GI50,A549,4.88 µM (inactive)
same,GI50,SK-OV-3,> 100 µM (inactive)
same,GI50,SR,0.394 µM (active)
same,GI50,MDA-N,0.114 µM (active)
same,GI50,RPMI-8226,0.0792 µM (active)
same,GI50,MDA-MB-231,0.333 µM (active)
same,GI50,HCC 2998,0.52 µM (active)
same,GI50,SK-MEL-2,> 100 µM (inactive)
same,GI50,COLO 205,0.069 µM (active)
same,GI50,LOX IMVI,0.466 µM (active)
same,GI50,SF-295,0.308 µM (active)
same,GI50,UACC-257,> 100 µM (inactive)
same,GI50,OVCAR-8,9.75 µM (inactive)
